# Assays:
# [1] = system: T98G cells; experiment: Clonogenic survival, POH pretreatment then doxorubicin, T98G; type: cell-based, human; conditions: T98G
# Method: Referring to FIG. 29, subconfluent cells of T98G cells were treated with varying concentrations of perillyl alcohol (0.1 mM–0.5 mM) for 48 hours and subsequently treated with the indicated dose of doxorubicin (0.01 uM–0.1 uM) for 48 hours. At the end of the treatment, POH-pretreated and untreated cells in the presence and absence of doxorubicin, were harvested, washed with PBS, plated at the desired cell number and incubated for two weeks. The colonies were stained with crystal violet and quantitated. Survival was determined as the ratio of plating efficiencies for each irradiated group to that of the untreated control. […] Doxorubicin at concentrations over 0.1 uM appeared to be toxic to the cells.
# [2] = system: rat mammary carcinoma; conditions: limonene, Haag et al.; cited from earlier work
# [3] = rats, 10% limonene diet for 10 weeks; cited from earlier work
# [4] = system: 21–26 kD proteins, including small GTP-binding proteins; conditions: dose dependent, distal to HMG-CoA reductase; cited from earlier work
structure (smiles),measurement,setting,value
"COc1cccc2c1C(=O)c1c(O)c3c(c(O)c1C2=O)C[C@@](O)(C(=O)CO)C[C@@H]3O[C@H]1C[C@H](N)[C@H](O)[C@H](C)O1 [Doxorubicin, reference compound]",concentrations toxic to the cells,[1],over 0.1 uM
C=C(C)[C@H]1CC=C(C)CC1 [limonene],effect on advanced rat mammary carcinomas,[2],regression of advanced rat mammary carcinomas
same,plasma levels of terpene metabolites,[3],270 µM
same,isoprenylation of 21–26 kD proteins,[4],inhibit isoprenylation
